Here are results for 4 molecules from US12077503B2, “Substituted cyclic amides and their use as herbicides” (FMC CORPORATION, priority 2015, dated 2024).

Like-named read-outs stand apart in the source and are kept apart here.

Assay type in all cases: in vivo
Test [1] concerns ryegrass, Italian (Italian ryegrass, Lolium multiflorum). The test can be described thus: Test A preemergence. The following applies: Lolium multiflorum, pre-emergence, 240 h; for pest or weed control at 125 g/ha: 125 g ai/ha, Preemergence, visual injury rating after approximately 10 d, read-out: Ryegrass, Italian plant response rating (0 to 100 scale, 0 is no effect, 100 is complete control); for pest or weed control at 500 g/ha: 500 g ai/ha, preemergence, visual injury rating about 10 d after treatment, 0 to 100 scale (0 no effect, 100 complete control), read-out: Ryegrass, Italian plant response rating. An outline of the steps:
(§1)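 Treatment is preemergence as a directed soil spray after planting, or postemergence at the one- to two-leaf stage, with test chemical in a non-phytotoxic solvent mixture plus surfactant. Plants stay in the greenhouse about 10 d before visual injury scoring on a 0 to 100 scale versus untreated controls.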

Test [2] deals with Galium (catchweed bedstraw, Galium aparine). The experiment in a line: Test A postemergence. The following applies: Galium, post-emergence, 240 h, postemergence, approx. 10 d; for pest or weed control at 125 g/ha: 125 g ai/ha, visual injury on 0 to 100 scale (0 no effect, 100 complete control), read-out: Galium plant response rating; for pest or weed control at 500 g/ha: 500 g ai/ha, visual injury, 0 to 100 scale (0 no effect, 100 complete control), read-out: Plant response rating, Galium. In short, it runs like this:
as §1

Another test deals with Kochia (Kochia scoparia). The experiment in a line: Test A postemergence. The following applies: Bassia scoparia, post-emergence, 240 h, postemergence, approx. 10 d; for pest or weed control at 125 g/ha: 125 g ai/ha, visual injury on 0 to 100 scale (0 no effect, 100 complete control), read-out: Kochia plant response rating; for pest or weed control at 500 g/ha: 500 g ai/ha, visual injury, 0 to 100 scale (0 no effect, 100 complete control), read-out: Plant response rating, Kochia. An outline of the steps: as §1

For test [3], the system named is barnyardgrass (Echinochloa crus-galli). The experiment in a line: Test A postemergence. The following applies: Echinochloa crus-galli, post-emergence, 240 h; for pest or weed control at 125 g/ha: 125 g ai/ha; for pest or weed control at 500 g/ha: 500 g ai/ha, visual injury, 0 to 100 scale (0 no effect, 100 complete control). In short, it runs like this:
as §1

Test [4] has as its system blackgrass (Alopecurus myosuroides). The experiment in a line: Test A postemergence. The following applies: Alopecurus myosuroides, post-emergence, 240 h; for pest or weed control at 125 g/ha: 125 g ai/ha; for pest or weed control at 500 g/ha: 500 g ai/ha, visual injury, 0 to 100 scale (0 no effect, 100 complete control). In short, it runs like this: as §1
The test system of a further test is corn (Zea mays). The test can be described thus: Test A postemergence. The following applies: Zea mays, post-emergence, 240 h; for Corn plant response rating (crop injury, 0 = no effect, 100 = complete kill) at 500 g/ha: 500 g ai/ha, visual injury, 0 to 100 scale (0 no effect, 100 complete control); for Corn plant response rating (crop injury, 0 = no effect, 100 = complete kill) at 500 g/ha / plant injury at 125 g/ha: postemergence, approx. 10 d; for plant injury at 125 g/ha: visual injury on 0 to 100 scale (0 no effect, 100 complete control), read-out: Corn plant response rating. An outline of the steps:
as §1

The subject of test [5] is giant foxtail (Setaria faberii). The test can be described thus: Test A postemergence. The following applies: Setaria faberi, post-emergence, 240 h, postemergence, approx. 10 d; for pest or weed control at 125 g/ha: 125 g ai/ha, visual injury on 0 to 100 scale (0 no effect, 100 complete control), read-out: Foxtail, Giant plant response rating; for pest or weed control at 500 g/ha: 500 g ai/ha, visual injury, 0 to 100 scale (0 no effect, 100 complete control), read-out: Plant response rating, Foxtail, Giant. In short, it runs like this: as §1

In test [6] the test system is pigweed (Amaranthus retroflexus). The experiment in a line: Test A postemergence. The following applies: Amaranthus retroflexus, post-emergence, 240 h, 125 g ai/ha, postemergence; visual injury on 0 to 100 scale (0 no effect, 100 complete control), approx. 10 d; read-out: Pigweed plant response rating. An outline of the steps: as §1
Test [7] deals with ragweed (common ragweed, Ambrosia elatior). The experiment in a line: Test A postemergence. The following applies: Ambrosia artemisiifolia, post-emergence, 240 h, 125 g ai/ha, postemergence; visual injury on 0 to 100 scale (0 no effect, 100 complete control), approx. 10 d; read-out: Ragweed plant response rating. In short, it runs like this:
as §1

In test [8] the test system is ryegrass, Italian (Italian ryegrass, Lolium multiflorum). The experiment in a line: Test A postemergence. The following applies: Lolium multiflorum, post-emergence, 240 h, 125 g ai/ha, postemergence; visual injury on 0 to 100 scale (0 no effect, 100 complete control), approx. 10 d; read-out: Ryegrass, Italian plant response rating. In short, it runs like this: as §1
Test [9] relates to wheat (Triticum aestivum). The experiment in a line: Test A postemergence. The following applies: Triticum aestivum, post-emergence, 240 h, 125 g ai/ha, postemergence; visual injury on 0 to 100 scale (0 no effect, 100 complete control), approx. 10 d; read-out: Wheat plant response rating. An outline of the steps:
as §1

In test [10] the test system is barnyardgrass (Echinochloa crus-galli). The test can be described thus: Test B flooded paddy test. The following applies: Echinochloa crus-galli, 250 g ai/ha, Flood; 0 to 100 scale where 0 is no effect and 100 is complete control; read-out: Barnyardgrass plant response rating. An outline of the steps:
(§2)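 Response scored visually against untreated controls, 0 = no effect and 100 = complete control, 13–15 d after treatment in the greenhouse. Compounds added to paddy water held 3 cm above soil surface. Treatment given at 2-leaf stage.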

In test [11] the test system is ducksalad (Heteranthera limosa). The test can be described thus: Test B flooded paddy test. The following applies: Heteranthera limosa, 250 g ai/ha, Flood; 0 to 100 scale where 0 is no effect and 100 is complete control; read-out: Ducksalad plant response rating. In short, it runs like this:
as §2

Another test has as its system rice (Oryra sativa). The test can be described thus: Test B flooded paddy test. The following applies: Oryza sativa, 250 g ai/ha, Flood; 0 to 100 scale where 0 is no effect and 100 is complete control; read-out: Rice plant response rating. An outline of the steps:
as §2

The subject of test [12] is sedge, umbrella (small-flower umbrella sedge, Cyperus difformis). The experiment in a line: Test B flooded paddy test. The following applies: Cyperus difformis, 250 g ai/ha, Flood; 0 to 100 scale where 0 is no effect and 100 is complete control; read-out: Sedge, Umbrella plant response rating. In short, it runs like this: as §2
[13] abbreviates: postemergence, approx. 10 d, read-out: Plant response rating, Barnyardgrass.
The mark [14] stands for this setting: postemergence, approx. 10 d, read-out: Plant response rating, Blackgrass.
Setting [15] is: postemergence, visual injury on 0 to 100 scale (0 no effect, 100 complete control), approx. 10 d, read-out: Barnyardgrass plant response rating.
Where [16] appears, read: postemergence, visual injury on 0 to 100 scale (0 no effect, 100 complete control), approx. 10 d, read-out: Blackgrass plant response rating.

`Cc1ccc([C@H]2CN(C)C(=O)[C@@H]2C(=O)Nc2ccccc2F)cc1C` [Compound 1038]: the pest or weed control at 125 g/ha in test [1] stood at 30%; in test [2], 50%; with Kochia (Kochia scoparia) it was 40%; in [3] (Postemergence, visual injury after approximately 10 d, 0 to 100 scale where 0 is no effect and 100 is complete control, read-out: Plant response rating, Barnyardgrass), 90%; in test [4] (Postemergence, visual injury after approximately 10 d, 0 to 100 scale where 0 is no effect and 100 is complete control, read-out: Plant response rating, Blackgrass), 30%; in [5], 90%. The pest or weed control at 125 g/ha was 0% in [6], 0% in [7] and 20% in test [8]. In addition, the pest or weed control at 500 g/ha in test [1] turned out to be 70%; in [2] it was 70%; in the test on Kochia (Kochia scoparia) it was 80%; in [3] (setting [13]), 90%; in [4] (setting [14]), 50%; in [5] it was 90%. The molecule further showed a Corn plant response rating (crop injury, 0 = no effect, 100 = complete kill) at 125 g/ha with corn (Zea mays) (125 g ai/ha, Postemergence, visual injury after approximately 10 d, 0 to 100 scale where 0 is no effect and 100 is complete control) of 60%. For the same molecule, the Corn plant response rating (crop injury, 0 = no effect, 100 = complete kill) at 500 g/ha with corn (Zea mays) worked out at 80%. Further, in test [9], the plant injury at 125 g/ha was determined as 20%. The pest or weed control at 250 g/ha is 65% in [10], 100% in test [11], 0% in the test with rice (Oryra sativa) and 0% in [12].

On to `Cc1cc([C@H]2CNC(=O)[C@@H]2C(=O)Nc2ccccc2F)ccc1C(F)(F)F` [Compound 1042], for which the pest or weed control at 125 g/ha amounted to 30% in [1]; 30% in test [2]; 30% in the test on Kochia (Kochia scoparia); 80% in [3] (setting [15]); 40% in test [4] (setting [16]); 80% in test [5]. Moreover, the pest or weed control at 125 g/ha was 20% in test [6], 0% in test [7] and 30% in test [8]. Moreover, the pest or weed control at 500 g/ha in test [1] came to 50%; in test [2], 50%; in the test on Kochia (Kochia scoparia), 60%; in test [3] (setting [13]), 90%; in test [4] (setting [14]), 70%; in test [5], 90%. In addition, the plant injury at 125 g/ha in the test on corn (Zea mays) (125 g ai/ha) turned out to be 60%; in test [9] it was 0%. The molecule also registered a Corn plant response rating (crop injury, 0 = no effect, 100 = complete kill) at 500 g/ha in the test with corn (Zea mays) of 70%. Besides, the pest or weed control at 250 g/ha in test [10] came out at 30%; in [11] it was 75%; with rice (Oryra sativa) it was 0%; in test [12] it was 0%.

In the case of `O=C1NC[C@H](c2ccc3c(c2)CCC3)[C@H]1C(=O)Nc1ccccc1F` [Compound 1045], the pest or weed control at 125 g/ha in test [1] is 30%; in test [2] it was 40%; with Kochia (Kochia scoparia) it was 0%; in [3] (setting [15]), 90%; in test [4] (setting [16]), 40%; in test [5], 60%. Also, the pest or weed control at 125 g/ha in test [6] amounted to 0%; in test [7] it was 30%; in [8] it was 50%. Further, the pest or weed control at 500 g/ha is 70% in [1]; 50% in test [2]; 0% with Kochia (Kochia scoparia); 90% in [3] (setting [13]); 60% in [4] (setting [14]); 90% in test [5]. For the same molecule, the plant injury at 125 g/ha (in the test on corn (Zea mays) (125 g ai/ha); in test [9]) was 20% each time. The same molecule came in with a Corn plant response rating (crop injury, 0 = no effect, 100 = complete kill) at 500 g/ha in the test with corn (Zea mays) of 40%. Also, the pest or weed control at 250 g/ha worked out at 75% in test [10], 100% in test [11], 0% with rice (Oryra sativa) and 0% in test [12].

Consider `O=C1NC[C@H](c2ccc3c(c2)CCC3)[C@H]1C(=O)Nc1cccc(F)c1F` [Compound 1046], for which the pest or weed control at 125 g/ha in test [1] stood at 60%; in test [2] it was 50%; in the test on Kochia (Kochia scoparia) it was 0%; in test [3] (setting [15]) it was 90%; in test [4] (setting [16]), 30%; in test [5], 60%. In addition, the pest or weed control at 125 g/ha came out at 0% in test [6], 0% in test [7] and 40% in test [8]. The pest or weed control at 500 g/ha was 60% in test [1]; 50% in [2]; 0% in the test with Kochia (Kochia scoparia); 90% in [3] (setting [13]); 50% in test [4] (setting [14]); 90% in [5]. The plant injury at 125 g/ha (in the test on corn (Zea mays) (125 g ai/ha); in test [9]) was 20% in each case. In addition, the Corn plant response rating (crop injury, 0 = no effect, 100 = complete kill) at 500 g/ha with corn (Zea mays) came out at 60%. Further, the pest or weed control at 250 g/ha turned out to be 60% in [10], 100% in test [11], 0% in the test on rice (Oryra sativa) and 0% in test [12].
